US10913712B2, “Tetracycline compounds” (Tetraphase Pharmaceuticals, Inc., priority 2012, dated 2021)
In brackets after ≈: the same amount, converted by molar mass. Read-outs that look alike come from different tables or passages of the source.

Tests used:
[1] = system: Klebsiella pneumoniae KP153 (tet(A), MDR, ESBL+)
[2] = system: Klebsiella pneumoniae KP109 (ATCC 13883); assay: MIC assay; format: cell-based
[3] = system: Staphylococcus aureus SA161 (HA-MRSA, tet(M)); assay: MIC assay; format: cell-based
[4] = system: Klebsiella pneumoniae KP457 (2009 ESBL+, CTX-M, OXA)
[5] = system: Klebsiella pneumoniae KP153 (tet(A), MDR, ESBL+); assay: microbe, parasite or virus in culture; conditions: read-out: MIC KP153 tetA
[6] = system: PA 884 35151; assay: MIC assay; format: cell-based; conditions: read-out: MIC PA 884 35151
[7] = system: PA 689; assay: MIC assay; format: cell-based; conditions: read-out: MIC PA 689
[8] = system: Escherichia coli EC107 (ATCC 25922); assay: MIC assay; format: cell-based; conditions: ATCC25922, read-out: MIC EC 107 25922, control compounds
[9] = system: Streptococcus pneumoniae SP160 (tet(M)); assay: MIC assay; format: cell-based
[10] = system: Enterococcus faecium EF404 (blood isolate, tet(M)); assay: MIC assay; format: cell-based; conditions: read-out: MIC EF 404 tetM, control compounds

With `CN(C)c1ccc(O)c2c1C[C@H]1C[C@H]3[C@H](N(C)C)C(O)=C(C(N)=O)C(=O)[C@@]3(O)C(O)=C1C2=O` [Minocycline, minocycline] the “MIC KP 153 tetA” value [1] was 8 µg/mL (≈ 17.5 µM), the MIC ([2]; ATCC13883, Table 4, control compounds, read-out: MIC KP109 13883) was 1 µg/mL (≈ 2.19 µM) and the “MIC SA 161 tetM” value ([3]; control compounds) was 8 µg/mL (≈ 17.5 µM). The “MIC KP 457 CTX-M-15” value [4] was 8 µg/mL (≈ 17.5 µM), the MIC [5] was 8 µg/mL (≈ 17.5 µM) and the MIC ([6]; Table 6, control compounds) was 1 µg/mL (≈ 2.19 µM). For the same compound, the MIC ([7]; Table 6, control compounds) was 8 µg/mL (≈ 17.5 µM).
For `CN(C)[C@@H]1C(O)=C(C(N)=O)C(=O)[C@@]2(O)C(O)=C3C(=O)c4c(O)cccc4C[C@H]3C[C@@H]12` [Sancycline, sancycline], the “MIC KP 153 tetA” value ([1]; Table 5, control compounds) was 32 µg/mL (≈ 77.2 µM), the “MIC KP 457 CTX-M-15” value [4] was 8 µg/mL (≈ 19.3 µM) and the MIC [5] was 32 µg/mL (≈ 77.2 µM). The MIC [6] was 4 µg/mL (≈ 9.65 µM) and the MIC [7] was 16 µg/mL (≈ 38.6 µM).
In the case of `CN(C)c1cc(NC(=O)CNC(C)(C)C)c(O)c2c1C[C@H]1C[C@H]3[C@H](N(C)C)C(O)=C(C(N)=O)C(=O)[C@@]3(O)C(O)=C1C2=O` [Tigecycline, tigecycline], the “MIC KP 153 tetA” value ([1]; Table 5, control compounds) is reported as 1 µg/mL (≈ 1.71 µM), the MIC [8] is reported as 0.02 µg/mL (≈ 0.0341 µM) and the MIC ([2]; ATCC13883, read-out: MIC KP109 13883) is reported as 0.125 µg/mL (≈ 0.213 µM). For the same compound, the MIC ([3]; Staphylococcus aureus, MRSA, read-out: MIC SA 161 tetM, control compounds) was 0.1 µg/mL (≈ 0.171 µM), the “MIC KP 457 CTX-M-15” value ([4]; Table 6, control compounds) was 1 µg/mL (≈ 1.71 µM) and the “MIC KP 457 CTX-M-15” value ([4]; Table 7, control compounds) was 1 µg/mL (≈ 1.71 µM). It also gave an MIC [6] of 0.063 µg/mL (≈ 0.108 µM), an MIC ([9]; read-out: MIC SP 160 tetM, Table 5, control compounds) of 0.2 µg/mL (≈ 0.341 µM) and an MIC ([9]; read-out: MIC SP 160 tetM, control compounds) of 0.03 µg/mL (≈ 0.0512 µM). It also gave an MIC [7] of 1 µg/mL (≈ 1.71 µM) and an MIC [10] of 0.06 µg/mL (≈ 0.102 µM).
